Assay results published in article PMC6197257 (Scientific Reports, 2018).

How the values were obtained:
rat 11β-HSD2 = target: T1, rat 11β-HSD2 (Rattus norvegicus, UniProt P50233); assay: in vitro 11β-HSD2 activity using rat kidney microsomes; assay type: biochemical
T1 construct: kidney microsome fractions were obtained from male Wistar rats (7-week-old); from tissue; host or cells: rat kidney microsome fraction (male Wistar rats)
T1 sequence (P50233 1-400): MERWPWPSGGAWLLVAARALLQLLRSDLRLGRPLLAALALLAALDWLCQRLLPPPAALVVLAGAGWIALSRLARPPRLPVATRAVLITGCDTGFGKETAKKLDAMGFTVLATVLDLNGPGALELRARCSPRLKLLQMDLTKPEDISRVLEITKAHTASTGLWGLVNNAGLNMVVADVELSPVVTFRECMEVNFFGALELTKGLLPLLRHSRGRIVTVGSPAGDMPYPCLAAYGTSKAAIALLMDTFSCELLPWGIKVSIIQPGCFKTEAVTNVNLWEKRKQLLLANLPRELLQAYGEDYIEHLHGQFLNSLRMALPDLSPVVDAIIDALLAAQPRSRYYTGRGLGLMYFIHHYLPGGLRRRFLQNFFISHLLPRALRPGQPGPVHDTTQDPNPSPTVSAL
Description: Assays were conducted as described by Diederich et al.[23] with slight modifications as described in our previous study. Briefly, kidney microsome fractions were obtained from male Wistar rats (7-week-old). The microsome fraction (1.0 mg protein) was then incubated at 37 °C for 30 min in a reaction mixture containing 50 nM [1,2,6,7-^3H] cortisol, 1 mM NAD^+, and samples in […] 0.1 M phosphate buffer (pH 6.0). The reaction was terminated by adding 250 µl EtOH containing 1.25 mg cortisol and 1.25 mg cortisone. A 10 µl aliquot of the solution was spotted onto a silica gel 60 F254 plate and was developed with chloroform:MeOH (9:1). Spots corresponding to cortisone (Rf value, 0.43) were detected under UV light, scraped into a scintillation vial containing Clear-sol®, and the radioactivity was measured using a liquid scintillation counter (Hitachi Aloka Medical, Tokyo, Japan). The IC50 was calculated from the least square regression line made from 3 points that crossed 50% of the control logarithmic concentration values.

rat kidney slices = assay: uptake by rat kidney slices; assay type: in vitro ADME; settings: pooled plasma of female EHBRs, pH 5.5, 2 h
Description: Female SD rats (9-week-old) were treated with urethane (1 g/kg, i.p.), and their kidneys were collected. After removal of the capsule, the kidneys were sliced at approximately 0.5-mm thickness in the frontal section of the organ, using a tissue slicer (Natsume Seisakusyo, Tokyo, Japan) and then cut at the renal hilus into two halves. The slices were pre-incubated at either 4 or 37 °C for 15 min in 24-well plates with 0.3 ml of the incubation medium (137 mM NaCl, 5.4 mM KCl, 0.95 mM CaCl2, 0.81 mM MgSO4, 0.44 mM KH2PO4, 0.25 mM Na2HPO4, 5.5 mM glucose, 10 mM MES, adjusted to pH 5.5). Five ml of pooled female EHBR plasma samples was lyophilized, and dissolved in 5 ml of the incubation medium. […] After washing with PBS three times, the kidney slices were homogenated in PBS using sonication, and the concentrations of protein were measured as mentioned above. […]
LC-ESI(+)MS/MS analysis was conducted at the following conditions: column, Scherzo SM-C18 (3 μm, 3 mm i.d. ×100 mm, Imtakt, Kyoto, Japan); mobile phase, (A) 5 mM AcNH4, (B) 125 mM AcNH4/acetonitrole 1:4, at a flow rate of 0.3 ml/min, with the following gradient profile: A:B = 50:50–0:100 (0–3 min) and 0:100 (3–10 min); compound 1 (5.8 min), astragaloside IV (3.0 min), GA (8.7 min); the transitions monitored were the same as described in the previous section. […]

[1] = pharmacokinetics in SD rats orally treated with GA (200 mg/kg), LC-MS/MS; assay type: in vivo, Sprague Dawley (SD) rats; settings: female SD rats, GA 200 mg/kg oral, over 12 h
Description: Female SD rats or EHBRs (9-week-old) were anesthetized by an intraperitoneal (i.p.) injection of urethane (1 g/kg) and their jugular veins were exposed. […] Aliquots (10 µl) of plasma or urine were mixed with 20 µl of subtilisin (0.91 U/ml), incubated at 37 °C for 30 min, followed by the addition of 70 µl of astragalloside IV solution (1 µg/ml in ethanol containing 0.5% formic acid), and kept at −20 °C for 30 min.

serum albumin = assay: binding assay with serum albumin (ultrafiltration of pooled plasma); assay type: in vitro ADME, rat; settings: pooled plasma of EHBRs, filtrate undetectable by LC-MS/MS
Description: In total 100 µl of pooled plasma samples from female EHBRs described above were ultra-centrifugated using Centricut W-20 (Molecular weight cut off 2 × 10^4, Kurabo Industries Ltd., Osaka, Japan) according to the manufacturer’s instruction, and the concentration of compound 1 in the filtrate was measured by using LC-MS/MS described in uptake study section.

- potency on 11β-HSD2, times lower than that of 3MGA and GA (rat 11β-HSD2; IC50 of compound 1 compared with 3MGA and GA): about 10 times
- IC50 (rat 11β-HSD2; kidney microsomes of male Wistar rats, 37 °C, 30 min): 2000 nM
- uptake by kidney slices at 37 °C compared with 4 °C (rat kidney slices): significantly higher
- detection in plasma of SD rats [1]: not detected
- urinary elimination in SD rats [1]: not detected
- albumin-binding ratio in plasma (serum albumin): more than 99.9%
SMILES: CC1(C(=O)OC2OC(C(=O)O)C(O)C(O)C2O)CC(O)C2(C)CCC3(C)C(=CC(=O)C4C5(C)CCC(OS(=O)(=O)O)C(C)(C)C5CCC43C)C2C1 (stereo not drawn) [Compound 1, 22α-hydroxy-18β-glycyrrhetyl-3-O-sulfate-30-glucuronide]
